Assay results: US9855255B1, “Substituted naphthyridinyl hydrazines as anti-liver cancer agents” (KING SAUD UNIVERSITY, priority 2017, dated 2018)
≈ marks a conversion by molar mass, not a printed value.

Key:
HepG2 (Liver) = test: MTT cell proliferation and viability assay on liver HEPG2 cancer cell line; type: cell-based; settings: Homo sapiens, 48 hours, read-out: IC50 cytotoxic activity
Procedure: In the following examples, human cancer cell line HepG2 (Liver) was grown in DMEM media supplemented with 10% bovine serum, 1× penicillin-streptomycin (Sigma-Aldrich) at 37° C. in a humidified chamber with 5% CO2. 5-Flurourasil (Sigma-Aldrich) was used as the reference drug (standard).
Cells were seeded (1×10^5 cells/well in triplicate) in a 96-well flat-bottom plate (Becton-Dickinson Lab ware) a day before treatment and grown. Stocks of all extracts/compounds (1.0 mg/ml) were made with 5% DMSO (Sigma-Aldrich), and further working solutions (100 μg/ml) were prepared in serum-free culture media. Cells were treated with four different doses (2, 6.2, 12.5, and 25 μg/ml; in triplicate) of the compounds in complete growth media, including reference drug, and further incubated for 48 hours.
On day 2 of treatment, cell proliferation and viability test was performed using TACS MTT Cell Proliferation and Viability Assay Kit (TACS), as per manufacturer's instructions. The relationship between surviving fraction and compound concentration was plotted to obtain the survival curve of cancer cell lines. The response parameter calculated was the IC50 value, which corresponds to the concentration required for 50% inhibition of cell viability.

[1] = Effect on biochemical parameters in mice serum; type: in vivo; settings: single i.p. 12 mg/kg, blood after 7 days; for Albumin / Bilirubin / Cholestrol / Creatinine / Globulin / Total Lipids / Triglycerides / Alanine amino transferase ALT / Alkaline phosphatase ALP / Aspartate amino transferase AST: Mean + S.D.; for Alanine amino transferase ALT / Alkaline phosphatase ALP / Aspartate amino transferase AST: 12 mg/kg
Description: Male albino mice, weighing 18-20 g each, were used in a study. The mice were divided into three main groups, as follows. Group 1 is the untreated control group (5 mice); Group 2 is divided into two subgroups (5 mice in each subgroup), treated with either 5-FU (5-Fluorouracil) or DOX (Doxorubicin) as reference anticancer drugs. Group 3 is divided into ten subgroups (5 mice for each subgroup) and treated with the present substituted naphthyridinyl hydrazine compounds. The mice were housed in wide cages and well aerated rooms, and fed standard diets and clean water. Blood collection from the animals was done with heparinized cannula, and the mice were left alive.
For treatment, in Group 1, each mouse was given a single intraperitoneal (i.p.) injection of 0.1 mL DMSO; in Group 2, each mouse was given a single i.p. injection of 0.1 mL containing 12 mg/kg body weight of 5-FU or DOX dissolved in sterile water; and in Group 3, each mouse was given a single intraperitoneal injection of 0.1 mL containing 12 mg/kg body weight of the selected furan derivatives dissolved in 0.01% DMSO. Blood was collected after 7 days from all mouse groups.
The biochemical effects of formula 1 compounds on some liver enzymes in mouse blood serum was studied. Effects on aspartate and alanine aminotransferases (AST and ALT), and alkaline phosphatase (ALP), were examined using a blood auto analyzer, Olympus AV 400, Japan. Moreover, albumin, globulins, creatinine, total lipids, cholesterol, triglycerides, and bilirubin were evaluated, in comparison to treatment using 5-FU or DOX. Statistical analysis of the results was performed using Chi-square values (SPSS computer program).

HepG2 cells = test: Phase contrast microscopy of morphological changes in HepG2 cells; type: cell-based, human; settings: for Morphological changes of HepG2 cells: 10 μg
Procedure: (§1) The cells were seeded in 6-well plates and allowed to adhere at 37° C. in a CO2 incubator. After 24 h, each well was treated with 10 μg compound and incubated for the indicated time. After 24 and 48 hrs, the cells were imaged by phase contrast microscope (Olympus CLX 41) to visualize morphological changes in HepG2 cells.
as §1, with “A. The” for “The”, “in” for “in a”, “μg of” for “μg”, “compound 6” for “compound”
A. Change in HepG2 cells after treatment with compound 6 was studied for morphological variations using the phase contrast microscopy.
Many characteristic features occur in cells undergoing a series of biochemical events during apoptosis. Various morphological changes, such as blebbing, loss of membrane asymmetry, cell shrinkage, nuclear fragmentation, chromatin condensation, and chromosomal DNA fragmentation occur.

[2] = test system: various human cancer cell lines; test: Single-dose screening against a variety of human cancer cell lines; type: cell-based; settings: leukemia, non-small cell lung, colon, CNS, melanoma, ovarian, renal, prostate, breast cancer cell lines
Description: FIGS. 5A and 5B are a chart showing results of single-dose screening for various human cancer cell lines treated with compound 6 (a substituted naphthyridinyl hydrazine according to the present invention).

HeLa cells = test: Phase contrast microscopy of morphological changes in HeLa cells; type: cell-based; settings: after 12 and 24 hrs
Procedure: B. Similar studies were done with HeLa cells. Cells were seeded in 6-well plates and allowed to adhere at 37° C. in CO2 incubator. After 24 h, each well was treated with 4.6 μM 2,6P-OLA and incubated for the indicated time. After 12 and 24 h, the cells were imaged by phase contrast microscope (Olympus CLX 41) to visualize morphological changes in HeLa cells.
B. Change in LeLa cells after treatment with compound 6 was also studied for morphological variations using the phase contrast microscopy.

SMILES	A/G ratio [1]	Albumin [1] [mg/d1]	Bilirubin [1] [mg/dL]	Cholestrol [1] [mg/dL]	Creatinine [1] [mg/dL]	Globulin [1] [mg/dL]	Total Lipids [1] [mg/dL]	Triglycerides [1] [mg/dL]	melting point [°C]	IC50 (HepG2 (Liver)) [µg/mL]	Alanine amino transferase ALT [1] [IU/ml]	Alkaline phosphatase ALP [1] [k.k./dl]	Aspartate amino transferase AST [1] [IU/ml]	also measured
O=c1[nH]cc(F)c(=O)[nH]1 [Compound 5-FU, 5-Fluorouracil]	1.13	6.49 ± 0.92	0.75 ± 0.10	105.9 ± 11.7	0.81 ± 0.06	5.75 ± 0.8	378.2 ± 31.4	126.5 ± 19.4	–	5 (≈ 38.4 µM)	–	–	–	–
Cc1ccc2c(N/N=C/c3ccccc3[N+](=O)[O-])cc(C)nc2n1 [Compound 6, (E)-2-(2-Nitrobenzylidene)-1-(2,7-dimethyl-1,8-naphthyridin-5-yl)hydrazine]	1.23	7.73 ± 0.52	0.76 ± 0.15	93.24 ± 19.53	0.71 ± 0.21	6.25 ± 0.82	326.32 ± 19.3	110.54 ± 17.8	255 to 256	0.885 (≈ 2.75 µM)	46.09 ± 6.13	21.59 ± 3.42	112.81 ± 9.88	Morphological changes of HepG2 cells (HepG2 cells; 24 hours, FIG. 7B): onset of apoptotic characteristics; Morphological changes of HepG2 cells (HepG2 cells; 48 hours, FIG. 7C): blebbing and loss of basal attachment and membrane asymmetry is markedly seen; Morphological variations of HepG2 cells (HepG2 cells; after 24 and 48 hrs, phase contrast microscopy): Changes in surface morphology; Cancer cell growth in single-dose screening [2]: significant decreases in cancer cell growth; Alanine amino transferase ALT ([1]; listed as new compound): non-significant (n.s.) or slightly higher; Alkaline phosphatase ALP ([1]; listed as new compound): no significant changes; Aspartate amino transferase AST ([1]; listed as new compound): non-significant (n.s.) or slightly higher; Morphological variations of HeLa cells (HeLa cells): Changes in surface morphology were observed
COc1cccc2c1C(=O)c1c(O)c3c(c(O)c1C2=O)C[C@@](O)(C(=O)CO)C[C@@H]3O[C@H]1C[C@H](N)[C@H](O)[C@H](C)O1 [Doxorubicin]	1.078	6.37 ± 0.85	0.81 ± 0.19	109.3 ± 14.2	0.78 ± 0.04	5.91 ± 0.63	21.94 ± 3.4	137.8 ± 17.10	–	3.56 (≈ 6.55 µM)	59.26 ± 12.03	30.31 ± 5.14	147.22	Alanine amino transferase ALT ([1]; listed as DOX): significantly higher; Alkaline phosphatase ALP ([1]; listed as DOX): significantly increased; Aspartate amino transferase AST ([1]; listed as DOX): significantly higher

More lines, main results first:

A/G ratio [1]	Albumin [1] [mg/d1]	Bilirubin [1] [mg/dL]	Cholestrol [1] [mg/dL]	Creatinine [1] [mg/dL]	Globulin [1] [mg/dL]	Total Lipids [1] [mg/dL]	Triglycerides [1] [mg/dL]	melting point [°C]	SMILES	IC50 (HepG2 (Liver)) [µg/mL]	Alanine amino transferase ALT [1] [IU/ml]	Alkaline phosphatase ALP [1] [k.k./dl]	Aspartate amino transferase AST [1] [IU/ml]	also measured
–	–	–	–	–	–	–	–	> 300	Cc1ccc2c(N/N=C3\C(=O)Nc4ccccc43)cc(C)nc2n1 [Compound 8b, (3Z)-3-[2-(2,7-Dimethyl-1,8-naphthyridin-4-yl)hydrazinylidene]-1,3-dihydro-2H-indol-2-one]	–	–	–	–	–
–	–	–	–	–	–	–	–	> 300	Cc1ccc2c(N/N=C3\C(=O)Nc4ccc(Cl)cc43)cc(C)nc2n1 [Compound 8c, (3Z)-5-Chloro-3-[2-(2,7-dimethyl-1,8-naphthyridin-4-yl)hydrazinylidene]-1,3-dihydro-2H-indol-2-one]	–	–	–	–	–
